Target: T1, FXR (Homo sapiens, UniProt Q96RI1)
T1 construct: 5 μL of 20 nM FXR-LBD Complete Coregulator buffer G; purchased ThermoFisher PV4833
T1 sequence (Q96RI1 262-486 limits assumed): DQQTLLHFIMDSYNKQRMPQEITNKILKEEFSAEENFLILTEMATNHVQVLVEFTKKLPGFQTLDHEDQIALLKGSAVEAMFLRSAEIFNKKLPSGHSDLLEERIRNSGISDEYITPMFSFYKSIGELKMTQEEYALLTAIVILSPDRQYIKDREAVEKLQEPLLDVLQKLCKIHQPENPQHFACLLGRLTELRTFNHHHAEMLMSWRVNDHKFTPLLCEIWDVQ
Test: FXR antagonist screening by TR-FRET (LanthaScreen TR-FRET FXR co-activation assay kit)
Assay type: biochemical
Conditions: Table 1.2, FXR antagonistic activity; TR-FRET with CDCA; geometric means of at least two independent runs
Experimental: FXR activity was evaluated by time-resolved fluorescence resonance energy transfer (TR-FRET) assay, using LanthaScreen™ TR-FRET FXR co-activation assay kit (ThermoFisher, Cat. PV4833). For agonist screening, 10 μL of Complete Coregulator buffer G containing the corresponding concentration of the compound to be tested, 5 μL of 20 nM FXR-LBD Complete Coregulator buffer G, and 5 μL of 2.0 μM Fluorescein-SRC2-2/20 nM Tb-anti-GST antibody Complete Coregulator buffer G were added to each well of a 384-well black plate (Coring) in sequence. […] Three duplicate wells were set up for each compound, with CDCA as the positive compound and DMSO as the solvent control. For antagonist screening, 5 μL of Complete Coregulator buffer G containing the corresponding concentration of the compound to be tested, 5 μL of 20 nM FXR-LBD Complete Coregulator buffer G, 5 μL of 200 μM CDCA FXR-LBD Complete Coregulator buffer G, and 5 μL of 2.0 μM Fluorescein-SRC2-2/20 nM Tb-anti-GST antibody Complete Coregulator buffer G were added to each well of a 384-well black plate (Coring) in sequence and incubated at room temperature for 10 h. Following operations were the same as those for agonist screening

| SMILES | IC50 |
| --- | --- |
| C/C=C/C(=O)N1CCN(c2ccccc2N(CCc2ccccc2)S(=O)(=O)c2ccc3oc(C(=O)O)c(C)c3c2)CC1 [Example F27-S120, (E)-5-(N-(2-(4-(but-2-enoyl)piperazin-1-yl)phenyl)-N-phenethylsulfamoyl)-3-methylbenzofuran-2-carboxylic acid] | 0.1 to 10 µM |
| Cc1c(C(=O)O)oc2ccc(S(=O)(=O)N(CCc3ccccc3)c3ccccc3N3CCN(C(=O)c4ccco4)CC3)cc12 [Example F27-S121, 5-(N-(2-(4-(furan-2-carbonyl)piperazin-1-yl)phenyl)-N-phenethylsulfamoyl)-3-methylbenzofuran-2-carboxylic acid] | 0.1 to 10 µM |
| Cc1c(C(=O)O)oc2ccc(S(=O)(=O)N(CCc3ccccc3)c3ccccc3N3CCN(C(=O)C4CCCC4)CC3)cc12 [Example F27-S122, 5-(N-(2-(4-(cyclopentanecarbonyl)piperazin-1-yl)phenyl)-N-phenethylsulfamoyl)-3-methylbenzofuran-2-carboxylic acid] | 0.1 to 10 µM |
| Cc1c(C(=O)O)oc2ccc(S(=O)(=O)N(CCc3ccccc3)c3ccccc3N3CCN(C(=O)c4ccc(Br)s4)CC3)cc12 [Example F27-S123, 5-(N-(2-(4-(5-bromothiophene-2-carbonyl)piperazin-1-yl)phenyl)-N-phenethylsulfamoyl)-3-methyl benzofuran-2-carboxylic acid] | 0.1 to 10 µM |
| Cc1c(C(=O)O)oc2ccc(S(=O)(=O)N(CCc3ccccc3)c3ccccc3N3CCN(C(=O)c4ccc[nH]4)CC3)cc12 [Example F27-S124, 5-(N-(2-(4-(1H-pyrrole-2-carbonyl)piperazin-1-yl)phenyl)-N-phenethylsulfamoyl)-3-methylbenzofuran-2-carboxylic acid] | 0.1 to 10 µM |
| Cc1c(C(=O)O)oc2ccc(S(=O)(=O)N(CCc3ccccc3)c3ccccc3N3CCN(C(=O)c4sccc4Br)CC3)cc12 [Example F27-S125, 5-(N-(2-(4-(3-bromothiophene-2-carbonyl)piperazin-1-yl)phenyl)-N-phenethylsulfamoyl)-3-methyl benzofuran-2-carboxylic acid] | 0.1 to 10 µM |
| Cc1c(C(=O)O)oc2ccc(S(=O)(=O)N(CCc3ccccc3)c3ccccc3N3CCN(C(=O)c4sccc4Cl)CC3)cc12 [Example F27-S126, 5-(N-(2-(4-(3-chlorothiophene-2-carbonyl)piperazin-1-yl)phenyl)-N-phenethylsulfamoyl)-3-methyl benzofuran-2-carboxylic acid] | 0.1 to 10 µM |
| Cc1c(C(=O)O)oc2ccc(S(=O)(=O)N(CCc3ccccc3)c3ccccc3N3CCN(C(=O)c4cc(Br)cs4)CC3)cc12 [Example F27-S127, 5-(N-(2-(4-(4-bromothiophene-2-carbonyl)piperazin-1-yl)phenyl)-N-phenethylsulfamoyl)-3-methyl benzofuran-2-carboxylic acid] | 0.1 to 10 µM |
| Cc1c(C(=O)O)oc2ccc(S(=O)(=O)N(CCc3ccccc3)c3ccccc3N3CCN(C(=O)c4ccc(Cl)s4)CC3)cc12 [Example F27-S128, 5-(N-(2-(4-(5-chlorothiophene-2-carbonyl)piperazin-1-yl)phenyl)-N-phenethylsulfamoyl)-3-methyl benzofuran-2-carboxylic acid] | 0.1 to 10 µM |
| Cc1c(C(=O)O)oc2ccc(S(=O)(=O)N(CCc3ccccc3)c3ccccc3N3CCN(C(=O)c4cncs4)CC3)cc12 [Example F27-S129, 3-methyl-5-(N-phenethyl-N-(2-(4-(thiazole-5-carbonyl)piperazin-1-yl)phenyl)sulfamoyl)benzofuran-2-carboxylic acid] | 0.1 to 10 µM |
| Cc1c(C(=O)O)oc2ccc(S(=O)(=O)N(CCc3ccccc3)c3ccccc3N3CCN(C(=O)c4cc[nH]n4)CC3)cc12 [Example F27-S130, 5-(N-(2-(4-(1H-pyrazole-3-carbonyl)piperazin-1-yl)phenyl)-N-phenethylsulfamoyl)-3-methylbenzo furan-2-carboxylic acid] | 0.1 to 10 µM |
| Cc1c(C(=O)O)oc2ccc(S(=O)(=O)N(CCc3ccccc3)c3ccccc3N3CCN(C(=O)c4cnco4)CC3)cc12 [Example F27-S131, 3-methyl-5-(N-(2-(4-(oxazole-5-carbonyl)piperazin-1-yl)phenyl)-N-phenethylsulfamoyl)benzofuran-2-carboxylic acid] | 0.1 to 10 µM |
| Cc1ccc(C(=O)N2CCN(c3ccccc3N(CCc3ccccc3)S(=O)(=O)c3ccc4oc(C(=O)O)c(C)c4c3)CC2)cc1C [Example F27-S132, 5-(N-(2-(4-(3,4-dimethylbenzoyl)piperazin-1-yl)phenyl)-N-phenethylsulfamoyl)3-methylbenzofuran-2-carboxylic acid] | 0.1 to 10 µM |
| COc1cccc(OC)c1C(=O)N1CCN(c2ccccc2N(CCc2ccccc2)S(=O)(=O)c2ccc3oc(C(=O)O)c(C)c3c2)CC1 [Example F27-S133, 5-(N-(2-(4-(2,6-dimethoxybenzoyl)piperazin-1-yl)phenyl)-N-phenethylsulfamoyl)3-methylbenzofuran-2-carboxylic acid] | 0.1 to 10 µM |
| Cc1c(C(=O)O)oc2ccc(S(=O)(=O)N(CCc3ccccc3)c3ccccc3N3CCN(C(=O)c4ccccc4Cc4ccccc4)CC3)cc12 [Example F27-S134, 5-(N-(2-(4-(2-benzylbenzoyl)piperazin-1-yl)phenyl)-N-phenethylsulfamoyl)3-methylbenzofuran-2-carboxylic acid] | 0.1 to 10 µM |
| Cc1cc(C)c(C(=O)N2CCN(c3ccccc3N(CCc3ccccc3)S(=O)(=O)c3ccc4oc(C(=O)O)c(C)c4c3)CC2)c(C)c1 [Example F27-S135, 5-(N-(2-(4-(2,4,6-trimethylbenzoyl)piperazin-1-yl)phenyl)-N-phenethylsulfamoyl)3-methylbenzofuran-2-carboxylic acid] | 0.1 to 10 µM |
| COc1ccccc1C(=O)N1CCN(c2ccccc2N(CCc2ccccc2)S(=O)(=O)c2ccc3oc(C(=O)O)c(C)c3c2)CC1 [Example F27-S136, 5-(N-(2-(4-(2-methoxybenzoyl)piperazin-1-yl)phenyl)-N-phenethylsulfamoyl)3-methylbenzofuran-2-carboxylic acid] | 0.1 to 10 µM |
| Cc1ccc(C)c(C(=O)N2CCN(c3ccccc3N(CCc3ccccc3)S(=O)(=O)c3ccc4oc(C(=O)O)c(C)c4c3)CC2)c1 [Example F27-S137, 5-(N-(2-(4-(2,5-Dimethylbenzoyl)piperazin-1-yl)phenyl)-N-phenethylsulfamoyl)3-methylbenzofuran-2-carboxylic acid] | 0.1 to 10 µM |
| Cc1c(C(=O)O)oc2ccc(S(=O)(=O)N(CCc3ccccc3)c3ccccc3N3CCN(C(=O)c4ccc(C#Cc5ccccc5)cc4)CC3)cc12 [Example F27-S138, 5-(N-(2-(4-(4-(phenylethynyl)benzoyl)piperazin-1-yl)phenyl)-N-phenethylsulfamoyl)3-methylbenzofuran-2-carboxylic acid] | 0.1 to 10 µM |
| Cc1ccc(C(=O)N2CCN(c3ccccc3N(CCc3ccccc3)S(=O)(=O)c3ccc4oc(C(=O)O)c(C)c4c3)CC2)s1 [Example F27-S139, 5-(N-(2-(4-(5-methylthiophene-2-formyl)piperazin-1-yl)phenyl)-N-phenethylsulfamoyl)3-methylbenzofuran-2-carboxylic acid] | 0.1 to 10 µM |
| Cc1csc(C(=O)N2CCN(c3ccccc3N(CCc3ccccc3)S(=O)(=O)c3ccc4oc(C(=O)O)c(C)c4c3)CC2)c1 [Example F27-S140, 5-(N-(2-(4-(4-methylthiophene-2-formyl)piperazin-1-yl)phenyl)-N-phenethylsulfamoyl)3-methylbenzofuran-2-carboxylic acid] | 0.1 to 10 µM |
| Cc1ccsc1C(=O)N1CCN(c2ccccc2N(CCc2ccccc2)S(=O)(=O)c2ccc3oc(C(=O)O)c(C)c3c2)CC1 [Example F27-S141, 5-(N-(2-(4-(3-methylthiophene-2-formyl)piperazin-1-yl)phenyl)-N-phenethylsulfamoyl)3-methylbenzofuran-2-carboxylic acid] | 0.1 to 10 µM |
| Cc1c(C(=O)O)oc2ccc(S(=O)(=O)N(CCc3ccccc3)c3ccccc3N3CCN(C(=O)c4ncc[nH]4)CC3)cc12 [Example F27-S142, 5-(N-(2-(4-(1H-imidazole-2-formyl)piperazin-1-yl)phenyl)-N-phenethylsulfamoyl)3-methylbenzofuran-2-carboxylic acid] | 0.1 to 10 µM |
| Cc1c(C(=O)O)oc2ccc(S(=O)(=O)N(CCc3ccccc3)c3ccccc3N3CCN(C(=O)C4CCCS4)CC3)cc12 (stereo not shown) [Example F27-S143, 5-(N-(2-(4-(tetrahydrothiophene-2-formyl)piperazin-1-yl)phenyl)-N-phenethylsulfamoyl)3-methyl benzofuran-2-carboxylic acid] | 0.1 to 10 µM |
| Cc1c(C(=O)O)oc2ccc(S(=O)(=O)N(CCc3ccccc3)c3ccccc3N3CCN(C(=O)c4c[nH]cn4)CC3)cc12 [Example F27-S144, 5-(N-(2-(4-(1H-imidazole-4-formyl)piperazin-1-yl)phenyl)-N-phenethylsulfamoyl)3-methylbenzofuran-2-carboxylic acid] | 0.1 to 10 µM |
